The source of these data is patent publication US7030145B2, “Pyridinyl derivatives for the treatment of depression” (Bristol-Myers Squibb Company, priority 2003, dated 2006).

For this assay, the target named is T1, cloned human CRF-R1 receptors (Homo sapiens, UniProt P34998).
T1 construct: the coding region was amplifies by PCR from start to stop codons; expressed in transfected cells; membranes
T1 sequence (P34998 24-415): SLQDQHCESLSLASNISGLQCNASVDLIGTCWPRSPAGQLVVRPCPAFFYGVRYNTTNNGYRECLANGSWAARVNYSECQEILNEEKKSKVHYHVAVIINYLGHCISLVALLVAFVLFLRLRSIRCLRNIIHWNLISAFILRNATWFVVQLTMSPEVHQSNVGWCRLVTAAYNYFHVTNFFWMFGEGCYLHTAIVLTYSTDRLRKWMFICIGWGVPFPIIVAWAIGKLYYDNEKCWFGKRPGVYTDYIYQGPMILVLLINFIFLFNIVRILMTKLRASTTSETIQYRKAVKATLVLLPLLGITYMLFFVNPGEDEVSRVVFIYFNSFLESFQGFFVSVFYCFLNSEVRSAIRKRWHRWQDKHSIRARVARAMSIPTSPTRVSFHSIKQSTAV
The assay is described as follows: CRF-R1 receptor binding assay (inhibition of 125I-ovine-CRF binding to cell membranes). The following applies: membranes of 293EBNA cells transfected with hCRFR1, class d = reported as percent inhibition at 10 μM, figures not given, read-out: activity (Ki class in the CRF assays). The text has this: The following is a description of the isolation of cell membranes containing cloned human CRF-R1 receptors for use in a standard binding assay as well as a description of the assay itself.
Messenger RNA was isolated from human hippocampus. […]. The mRNA was reverse transcribed using oligo (dt) 12–18 and the coding region was amplifies by PCR from start to stop codons. The resulting PCR fragment was cloned into the EcoRV site of pGEMV, from whence the insert was reclaimed using XhoI+XbaI and cloned into the XhoI+XbaI sites of vector pm3 as (which contains a CMV promoter, the SV′t′ splice and early poly A signals, an Eptein-Barr viral origin of replication, and a hygromycin selectable marker). The resulting expression vector, called phchCRFR was transfected in 293EBNA cells and cells retaining the episome were selected in the presence of […] hygromycin. Cells surviving 4 weeks of selection in hygromycin were pooled, adapted to growth in suspension and used to generate membranes for the binding assay described below. Individual aliquots containing approximately 1×10^8 of the suspended cells were then centrifuged to form a pellet and frozen. For the binding assay a frozen pellet described above containing 293EBNA cells transfected with hCRFR1 receptors is homogenized in 10 mL of ice cold tissue buffer (50 mM HEPES buffer pH 7.0, containing 10 MM MgCl2, 2 mM EGTA, 1 μg/mL apotinin, 1 μg/mL leupeptin and 1 μg/mL pepstatin). The homoginate is centrifuged at 40,000×g for 12 min and the resulting pellet rehomogenized in 10 mL of tissue buffer. After another centrifugation at 40,000×g for 12 min, the pellet is resuspended to a protein concentration of 360 μg/mL to be used in the assay.
Binding assays are performed in 96 well plates; each well having a 300 μL capacity. To each well is added 50 μL of test drug dilutions (final concentration of drugs range from 10^−10–10^−5 M), 100 μL of ^125I-ovine-CRF (^125I-o-CRF) (final concentration 150 pM) and 150 μL of the cell homoginate described above. Plates are then allowed to incubate at room temperature for 2 hours before filtering the incubate over GF/F filters (presoaked with 0.3% polyethyleneimine) using an appropriate cell harvester. Filters are rinsed 2 times with ice cold assay buffer before removing individual filters and assessing them for radioactivity on a gamma counter.
Curves of the inhibition of ^125I-o-CRF binding to cell membranes at various dilutions of test drug are analyzed by the iterative curve fitting program LIGAND [P. J. Munson and D. Rodbard, Anal. Biochem., 107:220 (1980), which provides Ki values for inhibition which are then used to assess biological activity. […]
Messenger RNA was isolated from human hippocampus. The mRNA was isolated from human hippocampus. The mRNA was reverse transcribed using oligo (dt) 12–18 and the coding region was amplifies by PCR from start to stop codons. The resulting PCR fragment was cloned into the EcoRV site of pGEMV, from whence the insert was reclaimed using XhoI+XbaI and cloned into the XhoI+XbaI sites of vector pm3 as (which contains a CMV promoter, the SV′t′ splice and early poly A signals, an Eptein-Barr viral origin of replication, and a hygromycin selectable marker). The resulting expression vector, called phchCRFR was transfected in 293EBNA cells and cells retaining the episome were selected in the presence of […] hygromycin. Cells surviving 4 weeks of selection in hygromycin were pooled, adapted to growth in suspension and used to generate membranes for the binding assay described below. […]
A frozen pellet described above containing 293EBNA cells transfected with hCRFR1 receptors or the rat frontal cortex tissue dissected from frozen rat brains was prepared as the source of membranes expressing CRF1 receptors used in binding assays. […]

The Ki is the equilibrium dissociation constant of an inhibitor or competing ligand from its target. As to `CCc1ccc(S(=O)(=O)c2ccc(C)nc2Nc2cc(C)c(C)cc2C)cc1` [Example 70, [3-(4-Ethylbenzenesulfonyl)-6-methylpyridin-2-yl]-(2,4,5-trimethylphenyl)-amine], the Ki is at most 100 nM. Regarding `Cc1cc(C)c(Nc2nc(C)ccc2S(=O)(=O)c2ccc(-c3ccccc3)cc2)c(C)c1` [Example 48, [3-(Biphenyl-4-sulfonyl)-6-methylpyridin-2-yl]-(2,4,6-trimethylphenyl)-amine], the Ki is at most 100 nM.

For `CCc1ccc(S(=O)(=O)c2ccc(C)nc2Nc2c(C)cc(C)cc2C)cc1` [Example 42, [3-(4-Ethylbenzenesulfonyl)-6-methylpyridin-2-yl]-(2,4,6-trimethylphenyl)-amine], the Ki is at most 100 nM. The value for `Cc1cc(C)c(Nc2nc(C)ccc2S(=O)(=O)c2cccc(OCc3cc(Cl)nc(Cl)c3)c2)c(C)c1` [Example 65, {3-[3-(2,6-Dichloropyridin-4-ylmethoxy)-benzenesulfonyl]-6-methylpyridin-2-yl}-(2,4,6-trimethylphenyl)-amine] was 100 to 500 nM.

As to `COc1ccccc1-c1ccc(S(=O)(=O)c2ccc(C)nc2Nc2c(C)cc(C)cc2C)cc1` [Example 49, [3-(2′-Methoxybiphenyl-4-sulfonyl)-6-methylpyridin-2-yl]-(2,4,6-trimethylphenyl)-amine], the inhibition constant (Ki) is at most 100 nM. Regarding `Cc1cc(C)c(Nc2nc(C)ccc2S(=O)(=O)c2ccc(F)cc2)c(C)c1` [Example 45, [3-(4-Fluorobenzenesulfonyl)-6-methylpyridin-2-yl]-(2,4,6-trimethylphenyl)-amine], the Ki lay within 100 to 500 nM. Turning to `Cc1cc(C)c(Nc2nc(C)ccc2S(=O)(=O)c2cccc(OCc3ccc(F)cc3)c2)c(C)c1` [Example 61, {3-[3-(4-Fluorobenzyloxy)-benzenesulfonyl]-6-methylpyridin-2-yl}-(2,4,6-trimethylphenyl)-amine], the inhibition constant Ki fell in the range of 100 to 500 nM.

Take `Cc1cc(C)c(Nc2nc(C)ccc2S(=O)(=O)c2cccc(OCc3ccc(Cl)nc3)c2)c(C)c1` [Example 64, {3-[3-(6-Chloropyridin-3-ylmethoxy)-benzenesulfonyl]-6-methylpyridin-2-yl}-(2,4,6-trimethylphenyl)-amine]: the inhibition constant (Ki) was in the range of 100 to 500 nM.

`Cc1cc(C)c(Nc2nc(C)ccc2S(=O)(=O)c2ccc(C(O)c3ccccc3)cc2)c(C)c1` (stereo not shown) [Example 53, {4-[6-Methyl-2-(2,4,6-trimethylphenylamino)-pyridine-3-sulfonyl]-phenyl}-phenyl-methanol]: the inhibition constant Ki is 100 to 500 nM. Under `C#Cc1ccc(S(=O)(=O)c2ccc(C)nc2Nc2c(C)cc(C)cc2C)cc1` [Example 47, [3-(4-Ethynylbenzenesulfonyl)-6-methylpyridin-2-yl]-(2,4,6-trimethylphenyl)-amine] stands at most 100 nM. In the case of `Cc1cc(C)c(Nc2nc(C)ccc2S(=O)(=O)c2ccc(C)c(C)c2)c(C)c1` [Example 38, [3-(3,4-Dimethylbenzenesulfonyl)-6-methylpyridin-2-yl]-(2,4,6-trimethylphenyl)-amine], the inhibition constant (Ki) is 100 to 500 nM. On to `Cc1ccc(S(=O)(=O)c2ccc(C)nc2Nc2c(C)cc(C)cc2C)cc1` [Example 41, [6-Methyl-3-(toluene-4-sulfonyl)-pyridin-2-yl]-(2,4,6-trimethylphenyl)-amine], for which the Ki was in the range of 100 to 500 nM. On to `Cc1cc(C)c(Nc2nc(C)ccc2S(=O)(=O)c2ccc(OC(F)(F)F)cc2)c(C)c1` [Example 44, [6-Methyl-3-(4-trifluoromethoxybenzenesulfonyl)-pyridin-2-yl]-(2,4,6-trimethylphenyl)-amine], for which the inhibition constant Ki is 100 to 500 nM. In the case of `Cc1cc(C)c(Nc2nc(C)ccc2S(=O)(=O)c2ccc(C(C)C)cc2)c(C)c1` [Example 43, [3-(4-Isopropylbenzenesulfonyl)-6-methylpyridin-2-yl]-(2,4,6-trimethylphenyl)-amine], the inhibition constant Ki fell in the range of 100 to 500 nM.

Take `COc1ccc(S(=O)(=O)c2ccc(C)nc2Nc2c(C)cc(C)cc2C)cc1OC` [Example 39, [3-(3,4-Dimethoxybenzenesulfonyl)-6-methylpyridin-2-yl]-(2,4,6-trimethylphenyl)-amine]: the Ki fell in the range of 500 to 5000 nM.

As for `CCc1ccc(S(=O)(=O)c2ccc(C)nc2Nc2ccc(C)cc2C)cc1` [Example 66, (2,4-Dimethylphenyl)-[3-(4-ethylbenzenesulfonyl)-6-methylpyridin-2-yl]-amine], the Ki is 100 to 500 nM.

As to `Cc1cc(C)c(Nc2nc(C)ccc2S(=O)(=O)c2ccc(Cl)c(Cl)c2)c(C)c1` [Example 40, [3-(3,4-Dichlorobenzenesulfonyl)-6-methylpyridin-2-yl]-(2,4,6-trimethylphenyl)-amine], the inhibitory constant (Ki) lay within 100 to 500 nM.

Regarding `CCc1ccc(S(=O)(=O)c2ccc(C)nc2Nc2ccc(OC)cc2OC)cc1` [Example 68, (2,4-Dimethoxyphenyl)-[3-(4-ethylbenzenesulfonyl)-6-methylpyridin-2-yl]-amine], the inhibition constant Ki was 100 to 500 nM. The value for `COc1cccc(COc2cccc(S(=O)(=O)c3ccc(C)nc3Nc3c(C)cc(C)cc3C)c2)c1` [Example 62, {3-[3-(3-Methoxybenzyloxy)-benzenesulfonyl]-6-methylpyridin-2-yl}-(2,4,6-trimethylphenyl)-amine] was 100 to 500 nM. The value for `CCc1ccc(S(=O)(=O)c2ccc(C)nc2Nc2ccc(OC)cc2C)cc1` [Example 67, [3-(4-Ethylbenzenesulfonyl)-6-methylpyridin-2-yl]-(4-methoxy-2-methylphenyl)-amine] was at most 100 nM. Under `Cc1cc(C)c(Nc2nc(C)ccc2S(=O)(=O)c2ccc(CO)cc2)c(C)c1` [Example 50, {4-[6-Methyl-2-(2,4,6-trimethylphenylamino)-pyridine-3-sulfonyl]-phenyl}-methanol] stands 100 to 500 nM. In the case of `Cc1cc(C)c(NCc2ccc(S(=O)(=O)c3ccc(C)nc3Nc3c(C)cc(C)cc3C)cc2)c(C)c1` [Example 51, (6-Methyl-3-{4-[(2,4,6-trimethylphenylamino)-methyl]-benzenesulfonyl}-pyridin-2-yl)-(2,4,6-trimethylphenyl)-amine], the Ki was 500 to 5000 nM.

As for `C=CCOc1ccc(S(=O)(=O)c2ccc(C)nc2Nc2c(C)cc(C)cc2C)cc1` [Example 13, [3-(4-Allyloxybenzenesulfonyl)-6-methylpyridin-2-yl]-(2,4,6-trimethylphenyl)-amine], the inhibitory constant (Ki) was 100 to 500 nM. Under `C=CCOc1cccc(S(=O)(=O)c2ccc(C)nc2Nc2c(C)cc(C)cc2C)c1` [Example 59, [3-(3-Allyloxybenzenesulfonyl)-6-methylpyridin-2-yl]-(2,4,6-trimethylphenyl)-amine] stands 100 to 500 nM; under `Cc1cc(C)c(Nc2nc(C)ccc2S(=O)(=O)c2ccc(C=O)cc2)c(C)c1` [Example 52, 4-[6-Methyl-2-(2,4,6-trimethylphenylamino)-pyridine-3-sulfonyl]-benzaldehyde], 500 to 5000 nM.
